Data set [1] has as its target T1, MAOB (Homo sapiens, UniProt P27338).
T1 sequence (P27338 1-520): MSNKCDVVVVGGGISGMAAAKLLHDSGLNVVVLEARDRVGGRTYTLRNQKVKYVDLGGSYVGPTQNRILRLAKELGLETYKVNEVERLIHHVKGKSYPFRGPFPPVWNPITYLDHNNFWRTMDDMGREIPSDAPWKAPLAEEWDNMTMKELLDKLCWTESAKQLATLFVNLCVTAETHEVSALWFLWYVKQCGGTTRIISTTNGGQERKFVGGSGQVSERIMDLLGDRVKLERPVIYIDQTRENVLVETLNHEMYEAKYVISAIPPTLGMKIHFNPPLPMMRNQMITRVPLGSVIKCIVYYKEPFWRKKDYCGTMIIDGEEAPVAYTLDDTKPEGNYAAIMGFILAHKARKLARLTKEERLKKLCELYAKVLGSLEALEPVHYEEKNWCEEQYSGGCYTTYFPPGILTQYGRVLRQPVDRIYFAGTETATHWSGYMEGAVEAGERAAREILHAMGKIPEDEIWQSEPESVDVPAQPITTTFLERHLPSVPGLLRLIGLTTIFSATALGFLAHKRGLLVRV
As to the kind of experiment: Metabolite formation by recombinant human MAOB. Format: in vitro ADME. The settings on record: trazodone 4 μM; 37 °C, 40 min.

In data set [2] the target is T2, FMO3 (Homo sapiens, UniProt P31513).
T2 sequence (P31513 1-532): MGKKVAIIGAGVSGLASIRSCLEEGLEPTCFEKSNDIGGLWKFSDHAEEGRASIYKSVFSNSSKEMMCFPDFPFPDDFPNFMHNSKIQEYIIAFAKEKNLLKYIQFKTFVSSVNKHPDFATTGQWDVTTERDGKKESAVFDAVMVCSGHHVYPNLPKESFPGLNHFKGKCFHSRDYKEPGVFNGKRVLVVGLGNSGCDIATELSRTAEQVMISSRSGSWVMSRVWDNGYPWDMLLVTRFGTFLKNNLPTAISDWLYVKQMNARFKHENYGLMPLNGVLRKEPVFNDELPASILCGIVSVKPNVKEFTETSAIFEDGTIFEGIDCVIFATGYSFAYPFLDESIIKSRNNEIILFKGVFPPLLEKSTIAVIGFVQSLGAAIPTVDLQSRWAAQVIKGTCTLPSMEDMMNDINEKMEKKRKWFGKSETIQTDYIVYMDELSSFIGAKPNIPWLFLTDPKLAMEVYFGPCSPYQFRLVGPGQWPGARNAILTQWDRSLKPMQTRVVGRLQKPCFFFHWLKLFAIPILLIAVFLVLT
As to the kind of experiment: Metabolite formation by recombinant human FMO3. Format: in vitro ADME. The settings on record: trazodone 4 μM; 37 °C, 40 min.

Data set [3] deals with rat hepatocytes. As to the kind of experiment: Metabolic profiling in rat hepatocytes. The settings on record: trazodone 8 μM, 120 min incubation. Format: in vitro ADME. The protocol:
(§1) For hepatocyte incubations, pooled cryopreserved human hepatocytes (20-donor mix, Celsis) and male Sprague-Dawley rat hepatocytes (12-donor mix, Bioreclamation IVT) were used. Each incubation contained 1 million viable cells/mL in Celsis InVitro HI medium, at a pH of 7.4, and was conducted at 37 °C for 120 min under gentle agitation to facilitate metabolic activity.
(§2) Processed supernatants (4 µL) were injected onto a Thermo U3000 UHPLC system coupled to a Thermo Q-Exactive Orbitrap MS equipped with a PDA detector. […] The Orbitrap operated in positive ESI mode (sheath/aux/sweep N2 55/8/4 units; capillary 3.0 kV, 370 °C; auxiliary heater 550 °C) with full-scan m/z 100–1,000 at 35,000 FWHM (m/z 200) and DDI-MS/MS at 17,500 FWHM (7 Hz acquisition; IT […]; HCD 40 eV). External mass calibration and a 5 ppm extraction window were applied, and data were processed in Xcalibur 3.0.63/Compound Discoverer 1.0.

The test system of data set [4] is human liver microsomes. As to the kind of experiment: Metabolic profiling in human liver microsomes. Format: in vitro ADME. The settings on record: trazodone 8 μM, 40 min incubation. The protocol: (§3) The metabolic profile of trazodone was determined using in vitro incubations with rat and human liver microsomes, hepatocytes, and rat plasma samples. […] Microsomal incubations were conducted with pooled human and rat liver microsomes (Celsis IVT) using 0.6 mg/mL microsomal protein in 0.1 M phosphate buffer (pH 7.4). NADPH (1 mM) was added as a cofactor to initiate phase I metabolic reactions. Reactions were performed at 37 °C for 40 min with gentle shaking.
as §2

The subject of data set [5] is human hepatocytes. As to the kind of experiment: Metabolic profiling in human hepatocytes. Format: in vitro ADME. Particulars: trazodone 8 μM, 120 min incubation. The protocol: as §1, §2
The subject of data set [6] is CYP2D18. As to the kind of experiment: Metabolite formation by recombinant rat CYP2D18. The settings on record: trazodone 4 μM; NADPH; 37 °C, 40 min. Format: in vitro ADME. The protocol:
(§4) To confirm the role of individual CYP isoforms in metabolizing trazodone, recombinant human and rat CYP enzymes were employed in separate incubations. […] Each reaction was terminated with acetonitrile, centrifuged, and the supernatant was analyzed by identical UHPLC-Orbitrap setup outlined in §2.2, allowing direct comparison of metabolite spectra across all in-vitro systems. […] This procedure helped confirm the contributions of individual isoforms to specific biotransformation reactions.

In data set [7] the test system is rat liver microsomes. As to the kind of experiment: Metabolic profiling in rat liver microsomes. Format: in vitro ADME. The settings on record: trazodone 8 μM, 40 min incubation. The protocol:
as §3, §2

Data set [8] concerns the target T3, CYP1A2 (Homo sapiens, UniProt P05177).
T3 sequence (P05177 1-516): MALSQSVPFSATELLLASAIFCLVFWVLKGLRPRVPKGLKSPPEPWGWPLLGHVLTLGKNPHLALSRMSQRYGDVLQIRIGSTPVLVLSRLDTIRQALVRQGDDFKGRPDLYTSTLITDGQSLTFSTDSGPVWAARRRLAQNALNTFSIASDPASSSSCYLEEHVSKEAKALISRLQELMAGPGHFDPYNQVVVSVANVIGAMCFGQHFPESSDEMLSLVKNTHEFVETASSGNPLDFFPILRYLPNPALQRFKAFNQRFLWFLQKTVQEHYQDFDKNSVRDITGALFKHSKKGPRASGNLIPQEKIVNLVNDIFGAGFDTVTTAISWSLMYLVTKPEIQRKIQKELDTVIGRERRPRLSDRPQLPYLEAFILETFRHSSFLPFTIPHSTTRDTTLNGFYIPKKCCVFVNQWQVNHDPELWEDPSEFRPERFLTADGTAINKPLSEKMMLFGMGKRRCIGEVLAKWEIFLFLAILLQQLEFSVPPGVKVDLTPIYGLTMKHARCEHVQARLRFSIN
Particulars: human hepatocytes; probe phenacetin; 0.1-100 μM.

Data set [9] deals with T3, CYP1A2. As to the kind of experiment: Metabolite formation by recombinant human CYP1A2. Format: in vitro ADME. Particulars: trazodone 4 μM; NADPH; 37 °C, 40 min. The protocol:
as §4

The target of data set [10] is T3, CYP1A2. As to the kind of experiment: biochemical.

The results in this text go back to PMC12518996 (Frontiers in Pharmacology, 2025).

For `O=c1n(CCCN2CCNCC2)nc2ccccn12` [Metabolite M15], the “Formation of trazodone phase I metabolite by recombinant human MAOB (as LC/MS peak areas)” value in data set [1] worked out at 0. In [2], the “Formation of trazodone phase I metabolite by recombinant human FMO3 (as LC/MS peak areas)” value amounted to 0. Further, the “relative abundance (% of total LC-MS signal), Hepatocytes Rat (%)” value in [3] was 0.7%. Moreover, the “relative abundance (% of total LC-MS signal), Liver microsomes Human (%)” value in data set [4] is listed as 0.3%. Moreover, the “relative abundance (% of total LC-MS signal), Hepatocytes Human (%)” value in data set [5] was determined as 0.2%. Moreover, the “Formation of trazodone phase I metabolite by recombinant rat CYP2D18 (as LC/MS peak areas)” value in [6] was 134. The “relative abundance (% of total LC-MS signal), Liver microsomes Rat (%)” value in data set [7] was determined as 0.8%.
As for `O=c1n(CCCO)nc2ccccn12` [Metabolite M20], the “Formation of trazodone phase I metabolite by recombinant human MAOB (as LC/MS peak areas)” value in data set [1] came out at 0. In addition, the “Formation of trazodone phase I metabolite by recombinant human FMO3 (as LC/MS peak areas)” value in data set [2] amounted to 0. In addition, the “relative abundance (% of total LC-MS signal), Hepatocytes Rat (%)” value in [3] is 0.9%. Also, in data set [4], the “relative abundance (% of total LC-MS signal), Liver microsomes Human (%)” value turned out to be 2.9%. Moreover, the “relative abundance (% of total LC-MS signal), Hepatocytes Human (%)” value in [5] is recorded as 0.9%. The “Formation of trazodone phase I metabolite by recombinant rat CYP2D18 (as LC/MS peak areas)” value in data set [6] is on record as 240. Besides, the “relative abundance (% of total LC-MS signal), Liver microsomes Rat (%)” value in [7] was determined as 1.4%.
Consider `Clc1cccc(N2CCNCC2)c1` [mCPP, m-chlorophenylpiperazine], for which, in [1], the “Formation of trazodone phase I metabolite by recombinant human MAOB (as LC/MS peak areas)” value was found to be 20. Also, the “IC50 value (µM), CYP1A2” value in [8] was “inactive”. For the same compound, the “Formation of trazodone phase I metabolite by recombinant human FMO3 (as LC/MS peak areas)” value in [2] is recorded as 4. Moreover, the “Formation of trazodone phase I metabolite by recombinant human CYP1A2 (as LC/MS peak areas)” value in data set [9] is 266. Moreover, in data set [10], the half-inhibitory concentration (IC50) is above 100 µM. Further, in data set [6], the “Formation of trazodone phase I metabolite by recombinant rat CYP2D18 (as LC/MS peak areas)” value was determined as 1962.
